In general, EC50 refers to the concentration needed to bring the measured effect to its halfway point.

Consider two molecules from paper PMC6257821, “Selective agonist of TRPML2 reveals direct role in chemokine release from innate immune cells” (eLife, 2018).

Holding throughout (format): cell-based
One assay concerns the target T1, mTRPML2 (Mus musculus, UniProt Q8K595).
T1 construct: gene Mcoln2
T1 sequence (Q8K595 1-566): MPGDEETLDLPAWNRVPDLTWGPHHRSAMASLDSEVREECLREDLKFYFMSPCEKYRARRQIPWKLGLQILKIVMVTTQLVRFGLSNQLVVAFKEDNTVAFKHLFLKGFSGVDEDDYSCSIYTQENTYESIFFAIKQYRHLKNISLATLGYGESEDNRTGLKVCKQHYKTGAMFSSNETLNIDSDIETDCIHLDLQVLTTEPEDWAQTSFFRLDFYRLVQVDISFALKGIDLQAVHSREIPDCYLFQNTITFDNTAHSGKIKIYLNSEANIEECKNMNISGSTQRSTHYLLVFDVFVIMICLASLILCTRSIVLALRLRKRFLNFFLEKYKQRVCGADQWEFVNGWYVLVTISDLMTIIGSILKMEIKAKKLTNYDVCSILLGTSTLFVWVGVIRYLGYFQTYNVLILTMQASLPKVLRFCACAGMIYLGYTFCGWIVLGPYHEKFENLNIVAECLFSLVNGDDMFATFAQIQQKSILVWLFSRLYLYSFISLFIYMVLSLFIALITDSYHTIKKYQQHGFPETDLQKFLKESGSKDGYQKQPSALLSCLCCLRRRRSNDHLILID
Nature of the assay: fura-2 calcium imaging dose-response in HEK293 cells; endolysosomal patch-clamp in LPS-stimulated mouse macrophages. In general terms: In patch-clamp work, channel activity is measured electrically.

The next assay has as its target T2, hTRPML2 (Homo sapiens, UniProt Q8IZK6).
T2 construct: gene MCOLN2; hTRPML2-YFP
T2 sequence (Q8IZK6 1-566): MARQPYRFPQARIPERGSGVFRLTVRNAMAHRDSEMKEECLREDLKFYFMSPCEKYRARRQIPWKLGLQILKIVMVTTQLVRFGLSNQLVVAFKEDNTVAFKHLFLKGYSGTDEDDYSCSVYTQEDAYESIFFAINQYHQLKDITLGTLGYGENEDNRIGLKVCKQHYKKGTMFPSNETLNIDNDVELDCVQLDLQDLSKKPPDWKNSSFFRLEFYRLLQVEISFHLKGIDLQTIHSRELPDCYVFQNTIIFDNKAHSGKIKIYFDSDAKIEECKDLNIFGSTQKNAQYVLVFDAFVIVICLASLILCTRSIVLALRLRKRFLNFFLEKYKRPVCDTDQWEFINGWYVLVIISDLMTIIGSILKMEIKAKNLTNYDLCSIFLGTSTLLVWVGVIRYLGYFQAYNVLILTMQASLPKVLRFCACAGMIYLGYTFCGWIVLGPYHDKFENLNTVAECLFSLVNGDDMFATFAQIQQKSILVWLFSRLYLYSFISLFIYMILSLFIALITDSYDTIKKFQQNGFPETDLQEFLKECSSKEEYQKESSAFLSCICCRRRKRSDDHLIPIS
The assay is described as follows: fura-2 calcium imaging dose-response and endolysosomal patch-clamp in HEK293 cells; G425A mutation abrogates effect.

The next assay has as its target T3, hTRPML1 (Homo sapiens, UniProt Q9GZU1).
T3 construct: gene MCOLN1
Nature of the assay: endolysosomal patch-clamp (LE/LY, HEK293), […], positive control.

The target in another assay is T4, hTRPML3 (Homo sapiens, UniProt Q8TDD5).
T4 sequence (Q8TDD5 1-553): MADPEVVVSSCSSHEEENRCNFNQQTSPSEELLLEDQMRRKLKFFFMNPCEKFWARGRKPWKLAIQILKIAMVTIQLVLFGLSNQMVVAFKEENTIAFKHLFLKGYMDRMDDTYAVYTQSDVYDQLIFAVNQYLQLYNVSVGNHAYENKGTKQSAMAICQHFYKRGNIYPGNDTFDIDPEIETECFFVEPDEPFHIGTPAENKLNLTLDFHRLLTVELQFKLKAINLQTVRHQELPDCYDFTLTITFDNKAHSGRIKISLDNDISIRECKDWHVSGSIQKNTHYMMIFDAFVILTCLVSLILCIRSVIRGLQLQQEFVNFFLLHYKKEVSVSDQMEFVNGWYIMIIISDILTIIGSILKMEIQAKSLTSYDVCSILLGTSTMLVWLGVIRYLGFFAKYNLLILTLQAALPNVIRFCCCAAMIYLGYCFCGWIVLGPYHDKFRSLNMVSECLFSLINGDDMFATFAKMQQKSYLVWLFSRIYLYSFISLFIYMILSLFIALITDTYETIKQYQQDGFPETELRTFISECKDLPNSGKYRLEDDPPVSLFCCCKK
The assay is described as above. On the set-up: gene MCOLN3.

T3 sequence (Q9GZU1 whole entry): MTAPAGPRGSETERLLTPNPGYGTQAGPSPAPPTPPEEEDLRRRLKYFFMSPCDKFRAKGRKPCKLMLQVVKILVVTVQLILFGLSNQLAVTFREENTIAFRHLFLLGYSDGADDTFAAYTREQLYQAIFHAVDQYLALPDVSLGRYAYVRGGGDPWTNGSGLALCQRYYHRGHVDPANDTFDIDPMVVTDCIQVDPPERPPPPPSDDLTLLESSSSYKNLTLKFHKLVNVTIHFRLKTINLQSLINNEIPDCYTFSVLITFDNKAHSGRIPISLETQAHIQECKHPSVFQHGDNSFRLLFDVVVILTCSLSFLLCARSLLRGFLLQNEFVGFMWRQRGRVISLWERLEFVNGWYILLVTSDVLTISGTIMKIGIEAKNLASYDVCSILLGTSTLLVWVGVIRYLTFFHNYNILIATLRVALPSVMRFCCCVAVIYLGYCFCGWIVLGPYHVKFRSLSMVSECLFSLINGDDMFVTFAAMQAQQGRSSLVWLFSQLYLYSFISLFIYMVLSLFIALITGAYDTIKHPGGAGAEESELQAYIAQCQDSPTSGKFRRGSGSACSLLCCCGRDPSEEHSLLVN

In the case of `Clc1cccc(Cl)c1C1=NOC2C3CCC(C3)C12` (stereo not shown) [EVP-22, ML2-SA1], the EC50 on mTRPML2 was found to be 2380 ± 10 nM; on hTRPML2 it was 1240 ± 120 nM.

As for `CC1CC(C)(C)N(C(=O)CN2C(=O)c3ccccc3C2=O)c2ccccc21` (stereo not shown) [ML-SA1], the “endolysosomal patch-clamp (LE/LY, HEK293), 10 μM, positive control” value on hTRPML1 and at hTRPML3 was “the latter ones were robustly activated by ML-SA1 as a positive control” each time.
